# Experimental data published in patent publication US8449898B2 (priority 2007, dated 2013).
# Read-outs that look alike come from different tables or passages of the source.
# Legend:
# [1] = test system: Phytophthora infestans (the causal agent of tomato late blight); test: whole plant or invertebrate; assay type: in vivo; conditions: for pest or weed control at 0.4 ppm / pest or weed control at 2 ppm / pest or weed control at 10 ppm / pest or weed control at 40 ppm / pest or weed control at 200 ppm / pest or weed control at 0.04 ppm / pest or weed control at 0.001 ppm / pest or weed control at 0.01 ppm / pest or weed control at 0.1 ppm: Phytophthora infestans; for pest or weed control at 0.04 ppm: read-out: TLB Obsd, component (b) alone, 0.04 ppm; for TLB Obsd (disease control rating): Table B
# [2] = test system: Pseudoperonospora cubensis (the causal agent of cucumber downy mildew); test: Test B: cucumber downy mildew, preventive spray on cucumber seedlings; assay type: in vivo; conditions: for CDM Obsd (disease control rating): Table B
# [3] = read-out: TLB Obsd, component (b) alone, 2 ppm
# [4] = read-out: TLB Obsd, component (b) alone, 10 ppm
# [5] = read-out: TLB Obsd, component (b) alone, 40 ppm
# [6] = read-out: TLB Obsd, component (b) alone, 200 ppm
# [7] = Pseudoperonospora cubensis, component (b) alone, read-out: CDM Obsd
# [8] = Pseudoperonospora cubensis, component (b) alone, 2 ppm, read-out: CDM Obsd
# [9] = Pseudoperonospora cubensis, component (b) alone, 10 ppm, read-out: CDM Obsd
# [10] = Pseudoperonospora cubensis, component (b) alone, 40 ppm, read-out: CDM Obsd
# [11] = Pseudoperonospora cubensis, component (b) alone, 200 ppm, read-out: CDM Obsd
# [12] = Table D, component (b) alone at 2 ppm
# [13] = Table D, component (b) alone at 10 ppm
# [14] = Table D, component (b) alone at 40 ppm
# [15] = Table D, component (b) alone at 200 ppm
# [16] = Table D, component (b) alone at 500 ppm
# [17] = component (b) alone 2 ppm (Compound 1 0 ppm)
# [18] = component (b) alone 10 ppm (Compound 1 0 ppm)
# [19] = component (b) alone 40 ppm (Compound 1 0 ppm)
# [20] = Pseudoperonospora cubensis, Compound 214 alone, read-out: CDM Obsd
# [21] = Pseudoperonospora cubensis, Compound 214 alone, read-out: CDM Obsd (observed effect, cucumber downy mildew)
smiles,measurement,setting,value
C[C@@]1(c2ccc(Oc3ccccc3)cc2)OC(=O)N(Nc2ccccc2)C1=O (racemic) [famoxadone],pest or weed control at 0.4 ppm,"[1]; read-out: TLB Obsd (disease control rating), Table C, component (b) alone 0.4 ppm",17%
same,pest or weed control at 2 ppm,"[1]; read-out: TLB Obsd (disease control rating), Table C, component (b) alone 2 ppm",26%
same,pest or weed control at 10 ppm,"[1]; read-out: TLB Obsd (disease control rating), Table C, component (b) alone 10 ppm",67%
same,pest or weed control at 40 ppm,"[1]; read-out: TLB Obsd (disease control rating), Table C, component (b) alone 40 ppm",53%
same,pest or weed control at 200 ppm,"[1]; read-out: TLB Obsd (disease control rating), Table C, component (b) alone 200 ppm",66%
same,pest or weed control at 0.04 ppm,[1],100%
same,pest or weed control at 2 ppm,[1]; [3],32%
same,pest or weed control at 10 ppm,[1]; [4],93%
same,pest or weed control at 40 ppm,[1]; [5],98%
same,pest or weed control at 200 ppm,[1]; [6],100%
same,pest or weed control at 0.4 ppm,"[2]; Pseudoperonospora cubensis, Table C, component (b) alone 0.4 ppm, read-out: CDM Obsd (disease control rating)",47%
same,pest or weed control at 2 ppm,"[2]; Pseudoperonospora cubensis, Table C, component (b) alone 2 ppm, read-out: CDM Obsd (disease control rating)",63%
same,pest or weed control at 10 ppm,"[2]; Pseudoperonospora cubensis, Table C, component (b) alone 10 ppm, read-out: CDM Obsd (disease control rating)",95%
same,pest or weed control at 40 ppm,"[2]; Pseudoperonospora cubensis, Table C, component (b) alone 40 ppm, read-out: CDM Obsd (disease control rating)",100%
same,pest or weed control at 200 ppm,"[2]; Pseudoperonospora cubensis, Table C, component (b) alone 200 ppm, read-out: CDM Obsd (disease control rating)",100%
same,pest or weed control at 0.4 µg/mL,"[2]; Pseudoperonospora cubensis, component (b) alone 0.4 ppm (Compound 1 0 ppm), read-out: CDM Obsd",47%
same,pest or weed control at 2 µg/mL,"[2]; Pseudoperonospora cubensis, component (b) alone 2 ppm (Compound 1 0 ppm), read-out: CDM Obsd",58%
same,pest or weed control at 10 µg/mL,"[2]; Pseudoperonospora cubensis, component (b) alone 10 ppm (Compound 1 0 ppm), read-out: CDM Obsd",87%
same,pest or weed control at 40 µg/mL,"[2]; Pseudoperonospora cubensis, component (b) alone 40 ppm (Compound 1 0 ppm), read-out: CDM Obsd",100%
same,pest or weed control at 200 µg/mL,"[2]; Pseudoperonospora cubensis, component (b) alone 200 ppm (Compound 1 0 ppm), read-out: CDM Obsd",100%
same,pest or weed control at 0.04 ppm,[2]; [7],100%
same,pest or weed control at 2 ppm,[2]; [8],21%
same,pest or weed control at 10 ppm,[2]; [9],72%
same,pest or weed control at 40 ppm,[2]; [10],100%
same,pest or weed control at 200 ppm,[2]; [11],100%
"CC1CCN(c2c(-c3c(F)cc(F)cc3F)c(Cl)nc3ncnn23)CC1 [BAS600, 5-chloro-6-(2,4,6-trifluorophenyl)-7-(4-methylpiperidin-1-yl)[1,2,4]triazolo[1,5-α]pyrimidine]",TLB Obsd,[1]; [12],26%
same,TLB Obsd,[1]; [13],6%
same,TLB Obsd,[1]; [14],56%
same,TLB Obsd,[1]; [15],20%
same,TLB Obsd,[1]; [16],12%
same,TLB Obsd,"[1]; component (b) alone, 2 ppm",7%
same,TLB Obsd,"[1]; component (b) alone, 10 ppm",0%
same,TLB Obsd,"[1]; component (b) alone, 40 ppm",15%
same,TLB Obsd,"[1]; component (b) alone, 200 ppm",30%
same,TLB Obsd,"[1]; component (b) alone, 500 ppm",15%
same,CDM Obsd,[2]; [12],47%
same,CDM Obsd,[2]; [13],99%
same,CDM Obsd,[2]; [14],100%
same,CDM Obsd,[2]; [15],100%
same,CDM Obsd,[2]; [16],100%
same,CDM Obsd,[2]; [17],0%
same,CDM Obsd,[2]; [18],72%
same,CDM Obsd,[2]; [19],100%
same,CDM Obsd,[2]; component (b) alone 200 ppm (Compound 1 0 ppm),100%
same,CDM Obsd,"[2]; component (b) alone, 2 ppm",0%
same,CDM Obsd,"[2]; component (b) alone, 10 ppm",99%
same,CDM Obsd,"[2]; component (b) alone, 40 ppm",100%
same,CDM Obsd,"[2]; component (b) alone, 200 ppm",100%
same,CDM Obsd,"[2]; component (b) alone, 500 ppm",100%
"Cc1cc(C(F)(F)F)nn1CC(=O)N1CCC(c2nc(C3=NO[C@@H](c4c(F)cccc4F)C3)cs2)CC1 [Compound 214, 1-[4-[4-[(5R)-5-(2,6-difluorophenyl)-4,5-dihydro-3-isoxazolyl]-2-thiazolyl]-1-piperidinyl]-2-[5-methyl-3-(trifluoromethyl)-1H-pyrazol-1-yl]ethanone]",pest or weed control at 0.001 ppm,"[1]; read-out: TLB Obsd (observed effect, tomato late blight), Compound 214 alone, 0.001 ppm",44%
same,pest or weed control at 0.01 ppm,"[1]; read-out: TLB Obsd (observed effect, tomato late blight), Compound 214 alone, 0.01 ppm",98%
same,pest or weed control at 0.1 ppm,"[1]; read-out: TLB Obsd (observed effect, tomato late blight), Compound 214 alone, 0.1 ppm",100%
same,pest or weed control at 0.001 ppm,"[1]; read-out: TLB Obsd, Compound 214 alone, 0.001 ppm",22%
same,pest or weed control at 0.01 ppm,"[1]; read-out: TLB Obsd, Compound 214 alone, 0.01 ppm",98%
same,pest or weed control at 0.1 ppm,"[1]; read-out: TLB Obsd, Compound 214 alone, 0.1 ppm",100%
same,pest or weed control at 0.001 ppm,"[2]; Pseudoperonospora cubensis, Compound 214 alone, 0.001 ppm, read-out: CDM Obsd (observed effect, cucumber downy mildew)",16%
same,pest or weed control at 0.01 ppm,[2]; [20],88%
same,pest or weed control at 0.01 ppm,[2]; [21],83%
same,pest or weed control at 0.1 ppm,[2]; [20],100%
same,pest or weed control at 0.1 ppm,[2]; [21],100%
CO/C=C(/C(=O)OC)c1ccccc1Oc1cc(Oc2ccccc2C#N)ncn1 [azoxystrobin],TLB Obsd (disease control rating),[1]; component (b) alone 0.08 ppm,0%
same,TLB Obsd (disease control rating),[1]; component (b) alone 0.4 ppm,16%
same,TLB Obsd (disease control rating),[1]; component (b) alone 2 ppm,26%
same,TLB Obsd (disease control rating),[1]; component (b) alone 10 ppm,58%
same,TLB Obsd (disease control rating),[1]; component (b) alone 40 ppm,99%
same,"TLB Obsd (observed effect, tomato late blight)","[1]; component (b) alone, 0.4 ppm",29
same,"TLB Obsd (observed effect, tomato late blight)","[1]; component (b) alone, 2 ppm",56
same,"TLB Obsd (observed effect, tomato late blight)","[1]; component (b) alone, 10 ppm",90
same,"TLB Obsd (observed effect, tomato late blight)","[1]; component (b) alone, 40 ppm",100
same,CDM Obsd (disease control rating),[2]; component (b) alone 0.08 ppm,64%
same,CDM Obsd (disease control rating),[2]; component (b) alone 0.4 ppm,80%
same,CDM Obsd (disease control rating),[2]; component (b) alone 2 ppm,100%
same,CDM Obsd (disease control rating),[2]; component (b) alone 10 ppm,100%
same,CDM Obsd (disease control rating),[2]; component (b) alone 40 ppm,100%
same,CDM Obsd,[2]; component (b) alone 0.08 ppm (Compound 1 0 ppm),26%
same,CDM Obsd,[2]; component (b) alone 0.4 ppm (Compound 1 0 ppm),40%
same,CDM Obsd,[2]; [17],100%
same,CDM Obsd,[2]; [18],100%
same,CDM Obsd,[2]; [19],100%
same,"CDM Obsd (observed effect, cucumber downy mildew)","[2]; component (b) alone, 0.4 ppm",0
same,"CDM Obsd (observed effect, cucumber downy mildew)","[2]; component (b) alone, 2 ppm",70
same,"CDM Obsd (observed effect, cucumber downy mildew)","[2]; component (b) alone, 10 ppm",100
same,"CDM Obsd (observed effect, cucumber downy mildew)","[2]; component (b) alone, 40 ppm",100
CC(C)[C@H](NC(=O)O)C(=O)N[C@H](C)c1nc2ccc(F)cc2s1 [benthiavalicarb],"TLB Obsd (observed effect, tomato late blight)","[1]; component (b) alone, 0.08 ppm",21
same,"TLB Obsd (observed effect, tomato late blight)","[1]; component (b) alone, 0.4 ppm",82
same,"TLB Obsd (observed effect, tomato late blight)","[1]; component (b) alone, 2 ppm",100
same,"TLB Obsd (observed effect, tomato late blight)","[1]; component (b) alone, 10 ppm",100
same,"TLB Obsd (observed effect, tomato late blight)","[1]; component (b) alone, 40 ppm",100
same,"CDM Obsd (observed effect, cucumber downy mildew)","[2]; component (b) alone, 0.08 ppm",0
same,"CDM Obsd (observed effect, cucumber downy mildew)","[2]; component (b) alone, 0.4 ppm",75
same,"CDM Obsd (observed effect, cucumber downy mildew)","[2]; component (b) alone, 2 ppm",100
same,"CDM Obsd (observed effect, cucumber downy mildew)","[2]; component (b) alone, 10 ppm",100
same,"CDM Obsd (observed effect, cucumber downy mildew)","[2]; component (b) alone, 40 ppm",100
O=C(Nc1ccccc1-c1ccc(Cl)cc1)c1cccnc1Cl [boscalid],pest or weed control at 0.4 ppm,"[1]; read-out: TLB Obsd (disease control rating), Table A, component (b) alone 0.4 ppm",9%
same,pest or weed control at 2 ppm,"[1]; read-out: TLB Obsd (disease control rating), Table A, component (b) alone 2 ppm",17%
same,pest or weed control at 10 ppm,"[1]; read-out: TLB Obsd (disease control rating), Table A, component (b) alone 10 ppm",17%
same,pest or weed control at 40 ppm,"[1]; read-out: TLB Obsd (disease control rating), Table A, component (b) alone 40 ppm",17%
same,pest or weed control at 200 ppm,"[1]; read-out: TLB Obsd (disease control rating), Table A, component (b) alone 200 ppm",9%
same,pest or weed control at 0.04 ppm,[1],25%
same,pest or weed control at 2 ppm,[1]; [3],0%
same,pest or weed control at 10 ppm,[1]; [4],0%
same,pest or weed control at 40 ppm,[1]; [5],17%
same,pest or weed control at 200 ppm,[1]; [6],32%
same,pest or weed control at 0.4 ppm,"[2]; Pseudoperonospora cubensis, Table A, component (b) alone 0.4 ppm, read-out: CDM Obsd (disease control rating)",47%
same,pest or weed control at 2 ppm,"[2]; Pseudoperonospora cubensis, Table A, component (b) alone 2 ppm, read-out: CDM Obsd (disease control rating)",47%
same,pest or weed control at 10 ppm,"[2]; Pseudoperonospora cubensis, Table A, component (b) alone 10 ppm, read-out: CDM Obsd (disease control rating)",47%
same,pest or weed control at 40 ppm,"[2]; Pseudoperonospora cubensis, Table A, component (b) alone 40 ppm, read-out: CDM Obsd (disease control rating)",47%
same,pest or weed control at 200 ppm,"[2]; Pseudoperonospora cubensis, Table A, component (b) alone 200 ppm, read-out: CDM Obsd (disease control rating)",47%
same,pest or weed control at 0.4 ppm,"[2]; Pseudoperonospora cubensis, Table G, component (b) alone at 0.4 ppm, read-out: CDM Obsd",47%
same,pest or weed control at 2 ppm,"[2]; Pseudoperonospora cubensis, Table G, component (b) alone at 2 ppm, read-out: CDM Obsd",47%
same,pest or weed control at 10 ppm,"[2]; Pseudoperonospora cubensis, Table G, component (b) alone at 10 ppm, read-out: CDM Obsd",26%
same,pest or weed control at 40 ppm,"[2]; Pseudoperonospora cubensis, Table G, component (b) alone at 40 ppm, read-out: CDM Obsd",26%
same,pest or weed control at 200 ppm,"[2]; Pseudoperonospora cubensis, Table G, component (b) alone at 200 ppm, read-out: CDM Obsd",26%
same,pest or weed control at 0.04 ppm,[2]; [7],68%
same,pest or weed control at 2 ppm,[2]; [8],0%
same,pest or weed control at 10 ppm,[2]; [9],0%
same,pest or weed control at 40 ppm,[2]; [10],0%
same,pest or weed control at 200 ppm,[2]; [11],0%
